This passage reports TGI and GI50 results from PubChem BioAssay (NCI).

Values joined by “and” are separate entries in the source; they are usually repeats but may differ in a detail not shown here. Identical values can stand only once.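 All cell lines were grown in 96-well plates and treated with compound for 48 hours. Abbreviation: GI50, concentration required for 50% inhibition of growth. The concentration for full growth arrest is given as TGI.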

Among the test systems are DMS 114 small cell lung; SW-620 colon; CCRF-CEM leukemia; NCI-H522 lung; SNB-78 CNS; RXF 393 renal; PC-3 prostate; NCI/ADR-RES ovarian; T-47D breast; BT-549 breast.
What all share (experiment): NCI-60 cell line screen, 48 h

Take `Cc1cc(N(CCC#N)CCC#N)ccc1/C=C/C(=O)Nc1ccccc1Cl`: the TGI with DMS 114 small cell lung, with SW-620 colon, in the assay with CCRF-CEM leukemia and in the assay on NCI-H522 lung was above 100 µM in each case.

Regarding `O=C(O)C(CS)N=Cc1nc(-c2ccccc2)oc1O` (centres undefined), the TGI in the assay on DMS 114 small cell lung, in the assay on SNB-78 CNS, in the assay on SW-620 colon, with RXF 393 renal, with CCRF-CEM leukemia and in the assay on NCI-H522 lung was above 100 µM each time.

Take `COc1cc2c3c(c1OC)/C(=N/OS(=O)(=O)c1ccc(C)cc1)CC3N(S(=O)(=O)c1ccc(C)cc1)CC2` (centres undefined): the TGI in the assay on DMS 114 small cell lung, in the assay with SNB-78 CNS, in the assay with SW-620 colon, with RXF 393 renal, in the assay on CCRF-CEM leukemia and with NCI-H522 lung was above 100 µM throughout.

With `C1=CC=C2NCCSCCNC3=CC=CC=CC3=NCCSCCN=C2C=C1`, the TGI in the assay with DMS 114 small cell lung, with SNB-78 CNS, in the assay on SW-620 colon, with CCRF-CEM leukemia and with NCI-H522 lung was above 100 µM throughout.

For the compound `C(/C=C/N1CCCC1)=C\c1nc(N2CCCC2)c2ccccc2n1`, the TGI with DMS 114 small cell lung came out at 33.2 µM; in the assay with SNB-78 CNS, 43.6 µM; in the assay on SW-620 colon, 29.8 µM; in the assay on CCRF-CEM leukemia, 50.1 µM.

Take `O=C(NOC(=O)c1ccc([N+](=O)[O-])cc1)c1ccc(Cl)cc1`: the TGI was above 100 µM in the assay on DMS 114 small cell lung; 65.3 µM in the assay with SNB-78 CNS; above 100 µM in the assay with SW-620 colon; above 100 µM in the assay on RXF 393 renal; above 100 µM in the assay with CCRF-CEM leukemia; 82.2 µM with NCI-H522 lung.

Regarding `C=C1c2ccccc2N(S(=O)(=O)c2ccc(C)cc2)C12CCCCC2`, the TGI with DMS 114 small cell lung, in the assay on SW-620 colon, in the assay on RXF 393 renal, in the assay with CCRF-CEM leukemia and with NCI-H522 lung was above 100 µM throughout.

Take `O=C1OC(c2ccc(Cl)c3ccccc23)c2ccccc21` (centres undefined): the TGI with DMS 114 small cell lung, in the assay with SNB-78 CNS, in the assay on RXF 393 renal, in the assay with CCRF-CEM leukemia and in the assay on NCI-H522 lung was above 100 µM each time.

Regarding `O=C1[C@H]2ON(c3ccccc3)C(c3cccc([N+](=O)[O-])c3)[C@H]2C(=O)N1c1ccc(Cc2ccc(N3C(=O)[C@@H]4ON(c5ccccc5)C(c5cccc([N+](=O)[O-])c5)[C@@H]4C3=O)cc2)cc1` (some centres undefined), the TGI in the assay on DMS 114 small cell lung, with SNB-78 CNS, with SW-620 colon, with RXF 393 renal, with CCRF-CEM leukemia and with NCI-H522 lung was above 100 µM throughout.

As to `COc1cc(/C=C2/C(=O)N(C(=O)c3ccccc3O)N=C2C)ccc1O`, the TGI in the assay on PC-3 prostate is above 100 µM; with DMS 114 small cell lung, 7.73 µM; with SW-620 colon it was above 100 µM; with NCI/ADR-RES ovarian, above 100 µM; with CCRF-CEM leukemia it was above 100 µM; with T-47D breast, above 100 µM.

Take `C=C(C[N+](C)(C)C)N/N=C/c1oc(-c2ccc(OC)c(OC)c2)c(-c2ccc(OC)c(OC)c2)c1[N+](=O)[O-]`: the TGI is above 100 µM in the assay with SNB-78 CNS; 34.5 µM in the assay with SW-620 colon; 30.1 µM in the assay with RXF 393 renal; 50.5 µM in the assay with CCRF-CEM leukemia; 45.3 µM with NCI-H522 lung.

For the compound `CC12O[Te]34OC1(C)C(C)(O3)C2(C)O4`, the TGI came out at 25.7 µM in the assay on DMS 114 small cell lung; 65.9 µM with SNB-78 CNS; 32.6 µM in the assay with SW-620 colon; 27 µM with RXF 393 renal; 23.6 µM with NCI-H522 lung.

Take `CC(C)(C)c1cc(C(=O)O)c(C(c2ccccc2)c2ccccc2C(=O)O)c(C(=O)O)c1` (centres undefined): the TGI is above 100 µM in the assay on DMS 114 small cell lung; above 100 µM with SNB-78 CNS; above 100 µM in the assay with SW-620 colon; above 100 µM in the assay on RXF 393 renal; above 100 µM with CCRF-CEM leukemia; 5.16 µM in the assay on NCI-H522 lung.

For `C=CCN(N=O)C(=O)ON1C(=O)CCC1=O`, the TGI in the assay with DMS 114 small cell lung, with SNB-78 CNS, with SW-620 colon, with RXF 393 renal, in the assay with CCRF-CEM leukemia and with NCI-H522 lung was above 100 µM in each case.

Consider `CN1C=C(C(N)=O)C2CC(O)[C@@](NC(=O)CS(N)(=O)=O)(C(=O)O)C2C1` (some centres undefined), for which the TGI in the assay with DMS 114 small cell lung was 7.38 µM; in the assay on SNB-78 CNS, 8.68 µM; in the assay with SW-620 colon, above 91.5 µM; in the assay with RXF 393 renal it was 4.16 µM; in the assay with CCRF-CEM leukemia, above 100 µM; in the assay on NCI-H522 lung it was 23.9 µM.

With `COc1cc2c(c(OC)c1OC)-c1ccc(SC)c(=O)cc1[C@@H](NC(=O)c1ccc(F)cc1)CC2`, the GI50 in the assay with DMS 114 small cell lung is 0.0267 µM and < 0.01 µM; with SNB-78 CNS it was below 0.01 µM; in the assay with SW-620 colon, below 0.01 µM. Besides, the TGI with DMS 114 small cell lung was 0.0636 µM and < 0.01 µM; in the assay with SNB-78 CNS, above 100 µM; in the assay on SW-620 colon it was above 100 µM; in the assay on CCRF-CEM leukemia, above 100 µM; in the assay on NCI-H522 lung it was below 0.01 µM.

Regarding `C=C1C(=O)C23CC1CCC2C12CO[C@@]3(O)[C@@H](O)C1C(C)(C)C=CC2=O` (some centres undefined), the TGI came out at 7.53 µM with PC-3 prostate; 2.23 µM with SNB-78 CNS; 10.2 µM with SW-620 colon; 60.4 µM in the assay with NCI/ADR-RES ovarian; 1.34 µM in the assay on RXF 393 renal; 4.09 µM with NCI-H522 lung. Further, the TGI with T-47D breast came out at 33.1 µM. The GI50 with CCRF-CEM leukemia is 0.759 µM.

Turning to `BrC(Br)([P+](c1ccccc1)(c1ccccc1)c1ccccc1)[P+](c1ccccc1)(c1ccccc1)c1ccccc1`, the TGI amounted to 30.3 µM in the assay with DMS 114 small cell lung; 90.1 µM in the assay on SNB-78 CNS; 29.6 µM in the assay with SW-620 colon; 23.6 µM with RXF 393 renal; 28.7 µM in the assay with NCI-H522 lung.

Consider `Cc1ccc(NCCNCC(O)CO)c2c(=O)c3ccccc3sc12` (centres undefined), for which the GI50 with PC-3 prostate was 1.58 µM; in the assay on SW-620 colon, 1.04 µM; in the assay on NCI/ADR-RES ovarian it was 1.67 µM; in the assay on RXF 393 renal, 1.43 µM; in the assay on BT-549 breast, 2.47 µM; with CCRF-CEM leukemia it was 1.86 µM. Further, the GI50 in the assay on NCI-H522 lung was 1.91 µM; in the assay with T-47D breast, 1.79 µM. The TGI with PC-3 prostate came out at 3.22 µM; with SW-620 colon it was 2.57 µM; in the assay with NCI/ADR-RES ovarian, 3.75 µM; in the assay with RXF 393 renal, 2.89 µM; in the assay on BT-549 breast it was 10.5 µM; in the assay with CCRF-CEM leukemia it was 4.55 µM. In addition, the values for the TGI with NCI-H522 lung and in the assay on T-47D breast were 4.09 µM and 4.08 µM, respectively.

For the compound `Cc1ccc(S(=O)c2ccc([N+](=O)[O-])c3nonc23)cc1` (centres undefined), the GI50 in the assay on PC-3 prostate is 12.8 µM; in the assay on SW-620 colon, 2.18 µM; with NCI/ADR-RES ovarian, 15.8 µM; with RXF 393 renal, 2.33 µM; in the assay on BT-549 breast, 10.1 µM; with CCRF-CEM leukemia, 2.3 µM. In addition, the GI50 with NCI-H522 lung is 1.57 µM; with T-47D breast it was 2.04 µM. Besides, the TGI in the assay on PC-3 prostate was 27.1 µM; in the assay on SW-620 colon, 5 µM; with NCI/ADR-RES ovarian, 48.9 µM; in the assay on RXF 393 renal it was 5.53 µM; in the assay on BT-549 breast, 21.7 µM; with CCRF-CEM leukemia, 6.27 µM. The TGI in the assay on NCI-H522 lung worked out at 2.98 µM; with T-47D breast it was 4.59 µM.
